Measured values: patent US11661426B2, “Imidazole-containing inhibitors of ALK2 kinase” (BioCryst Pharmaceuticals, Inc., priority 2017, dated 2023)

Target: ALK2 (Homo sapiens (Human), UniProt Q04771)
Assay: ALK2 inhibition, LanthaScreen Eu Kinase Binding Assay (ThermoFisher Scientific / Life Technologies)
Conditions: read-out: Measured Ki (IC50) Value for Compounds: IC50
Description: Biochemical assays to measure the inhibitory effects of the compounds were performed by ThermoFisher Scientific (Life Technologies). ALK2 inhibition was tested using LanthaScreen™ Eu Kinase Binding Assay screening protocol.

Sequence of ALK2 (Q04771 21-509): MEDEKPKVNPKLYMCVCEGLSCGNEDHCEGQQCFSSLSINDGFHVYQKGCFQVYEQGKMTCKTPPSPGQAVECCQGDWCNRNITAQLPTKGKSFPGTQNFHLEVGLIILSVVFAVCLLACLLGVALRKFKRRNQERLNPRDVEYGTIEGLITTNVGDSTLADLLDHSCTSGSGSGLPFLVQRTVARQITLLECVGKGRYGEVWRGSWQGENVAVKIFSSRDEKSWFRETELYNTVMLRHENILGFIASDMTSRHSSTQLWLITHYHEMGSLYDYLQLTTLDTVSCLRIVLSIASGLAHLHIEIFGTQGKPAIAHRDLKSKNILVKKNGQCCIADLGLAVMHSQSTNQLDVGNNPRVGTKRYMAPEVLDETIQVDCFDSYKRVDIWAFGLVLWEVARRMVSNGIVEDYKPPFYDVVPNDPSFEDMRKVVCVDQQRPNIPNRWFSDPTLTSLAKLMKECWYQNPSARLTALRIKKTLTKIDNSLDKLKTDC

`OC[C@@H]1CCCN1c1nc(Nc2cn(-c3cn(C4CCCC4)cn3)cn2)c2cccn2n1` [Compound 451d, (S)-(1-(4-((1′-cyclopentyl-1′H-[1,4′-biimidazol]-4-yl)amino)pyrrolo[2,1-f][1,2,4]triazin-2-yl)pyrrolidin-2-yl)methanol] showed an IC50 of 100 to 1000 nM.

Compound `OC[C@@H]1CCCN1c1nc(Nc2cn(-c3cn(C4CCCCC4)cn3)cn2)c2cccn2n1` [Compound 452d, (S)-(1-(4-((1′-cyclohexyl-1′H-[1,4′-biimidazol]-4-yl)amino)pyrrolo[2,1-f][1,2,4]triazin-2-yl)pyrrolidin-2-yl)methanol] has an IC50 of 100 to 1000 nM.

`COc1cc(-n2cnc(Nc3nc(N4CCC[C@H]4CO)nc4c3cnn4CC3CCCCC3)c2)cc(OC)c1OC` [Compound 453d, (S)-(1-(1-(cyclohexylmethyl)-4-((1-(3,4,5-trimethoxyphenyl)-1H-imidazol-4-yl)amino)-1H-pyrazolo[3,4-d]pyrimidin-6-yl)pyrrolidin-2-yl)methanol] showed an IC50 of under 100 nM.

`COc1cc(-n2cnc(Nc3nc(N4CCC[C@H]4CO)c4c(C)nn(C5CCOCC5)c4n3)c2)cc(OC)c1OC` [Compound 454c, (S)-(1-(3-methyl-1-(tetrahydro-2H-pyran-4-yl)-6-((1-(3,4,5-trimethoxyphenyl)-1H-imidazol-4-yl)amino)-1H-pyrazolo[3,4-d]pyrimidin-4-yl)pyrrolidin-2-yl)methanol] was tested, and the IC50 was under 100 nM.

`OC[C@@H]1CCCN1c1nc(Nc2nccs2)c2cccn2n1` [Compound 455c, (S)-(1-(4-(thiazol-2-ylamino)pyrrolo[2,1-f][1,2,4]triazin-2-yl)pyrrolidin-2-yl)methanol] was tested, and the IC50 was 100 to 1000 nM.

`COC(=O)c1cnc(Nc2nc(N3CCC[C@H]3CO)nn3cccc23)s1` [Compound 455d, (S)-methyl 2-((2-(2-(hydroxymethyl)pyrrolidin-1-yl)pyrrolo[2,1-f][1,2,4]triazin-4-yl)amino)thiazole-5-carboxylate] showed an IC50 of over 1000 nM.

Compound `COc1cc(-n2cnc(Nc3nc(N4CCC[C@H]4CO)c4c(C)nn(C(C)C)c4n3)c2)cc(OC)c1OC` [Compound 456c, (S)-(1-(1-isopropyl-3-methyl-6-((1-(3,4,5-trimethoxyphenyl)-1H-imidazol-4-yl)amino)-1H-pyrazolo[3,4-d]pyrimidin-4-yl)pyrrolidin-2-yl)methanol] has an IC50 of under 100 nM.

For `COc1cc(-n2cnc(Nc3nc(N4CCC[C@H]4CO)nc4c3cnn4[C@H]3CC[C@@H](O)CC3)c2)cc(OC)c1OC` [Compound 457c, (cis)-4-(6-((S)-2-(hydroxymethyl)pyrrolidin-1-yl)-4-((1-(3,4,5-trimethoxyphenyl)-1H-imidazol-4-yl)amino)-1H-pyrazolo[3,4-d]pyrimidin-1-yl)cyclohexanol], the IC50 was under 100 nM.

In the case of `CCn1nc(C)c2c(N3CCC[C@H]3CO)nc(Nc3cn(-c4cc(OC)c(OC)c(OC)c4)cn3)nc21` [Compound 458c, (S)-(1-(1-ethyl-3-methyl-6-((1-(3,4,5-trimethoxyphenyl)-1H-imidazol-4-yl)amino)-1H-pyrazolo[3,4-d]pyrimidin-4-yl)pyrrolidin-2-yl)methanol], the IC50 is reported as under 100 nM.

`COc1cc(-n2cnc(Nc3nc(N4CCC[C@H]4CO)c4c(C)nn(C5CC(F)(F)C5)c4n3)c2)cc(OC)c1OC` [Compound 459c, (S)-(1-(1-(3,3-difluorocyclobutyl)-3-methyl-6-((1-(3,4,5-trimethoxyphenyl)-1H-imidazol-4-yl)amino)-1H-pyrazolo[3,4-d]pyrimidin-4-yl)pyrrolidin-2-yl)methanol] was tested, and the IC50 was under 100 nM.

Compound `COc1cc(-n2cnc(Nc3nc(N4CCC[C@@H]4CO)c4c(C)nn(C5CCC5)c4n3)c2)cc(OC)c1OC` [Compound 460d, (R)-(1-(1-cyclobutyl-3-methyl-6-((1-(3,4,5-trimethoxyphenyl)-1H-imidazol-4-yl)amino)-1H-pyrazolo[3,4-d]pyrimidin-4-yl)pyrrolidin-2-yl)methanol] has an IC50 of under 100 nM.

`COc1cc(-c2cnc(Nc3nc(N4CCC[C@H]4CO)nn4cccc34)s2)cc(OC)c1OC` [Compound 461c, (S)-(1-(4-((5-(3,4,5-trimethoxyphenyl)thiazol-2-yl)amino)pyrrolo[2,1-f][1,2,4]triazin-2-yl)pyrrolidin-2-yl)methanol] gave an IC50 of under 100 nM.

Work on `COc1cc(-n2cnc(Nc3nc(N4CCC[C@H]4CO)nc4c3ccn4CC3CCCCC3)c2)cc(OC)c1OC` [Compound 462c, (S)-(1-(7-(cyclohexylmethyl)-4-((1-(3,4,5-trimethoxyphenyl)-1H-imidazol-4-yl)amino)-7H-pyrrolo[2,3-d]pyrimidin-2-yl)pyrrolidin-2-yl)methanol] yielded an IC50 of under 100 nM.

`COc1cc(-n2cnc(Nc3nc(N4CCC[C@H]4CO)c4c(C)nn(CC5CC5)c4n3)c2)cc(OC)c1OC` [Compound 463c, (S)-(1-(1-(cyclopropylmethyl)-3-methyl-6-((1-(3,4,5-trimethoxyphenyl)-1H-imidazol-4-yl)amino)-1H-pyrazolo[3,4-d]pyrimidin-4-yl)pyrrolidin-2-yl)methanol] was tested, and the IC50 was under 100 nM.

`COc1cc(-n2cnc(Nc3nc(N4CCC[C@H]4CO)c4cnn(C5CCC5)c4n3)c2)cc(OC)c1OC` [Compound 464d, (S)-(1-(1-cyclobutyl-6-((1-(3,4,5-trimethoxyphenyl)-1H-imidazol-4-yl)amino)-1H-pyrazolo[3,4-d]pyrimidin-4-yl)pyrrolidin-2-yl)methanol] gave an IC50 of under 100 nM.

Compound `COc1cc(-n2cnc(Nc3nc(N4CCC[C@H]4CO)c4c(C)nn([C@H]5C[C@H](O)C5)c4n3)c2)cc(OC)c1OC` [Compound 465c, (trans)-3-(4-((S)-2-(hydroxymethyl)pyrrolidin-1-yl)-3-methyl-6-((1-(3,4,5-trimethoxyphenyl)-1H-imidazol-4-yl)amino)-1H-pyrazolo[3,4-d]pyrimidin-1-yl)cyclobutanol] has an IC50 of under 100 nM.

Work on `COc1cc(-n2cnc(Nc3nc(N4CCC[C@H]4CO)c4c(C)nn([C@H]5C[C@@H](O)C5)c4n3)c2)cc(OC)c1OC` [Compound 466c, (cis)-3-(4-((S)-2-(hydroxymethyl)pyrrolidin-1-yl)-3-methyl-6-((1-(3,4,5-trimethoxyphenyl)-1H-imidazol-4-yl)amino)-1H-pyrazolo[3,4-d]pyrimidin-1-yl)cyclobutanol] yielded an IC50 of under 100 nM.

`O=C(c1cnc(Nc2nc(N3CCC[C@H]3CO)nn3cccc23)s1)N1CCC[C@H]1CO` [Compound 467c, ((S)-2-(hydroxymethyl)pyrrolidin-1-yl)(2-((2-((S)-2-(hydroxymethyl)pyrrolidin-1-yl)pyrrolo[2,1-f][1,2,4]triazin-4-yl)amino)thiazol-5-yl)methanone] was tested, and the IC50 was over 1000 nM.

`CNC(=O)c1cc(C2CC2)cc(-n2cnc(Nc3nc(N4CCC[C@H]4CO)nn4cccc34)c2)c1` [Compound 468g, (S)-3-cyclopropyl-5-(4-((2-(2-(hydroxymethyl)pyrrolidin-1-yl)pyrrolo[2,1-f][1,2,4]triazin-4-yl)amino)-1H-imidazol-1-yl)-N-methylbenzamide] showed an IC50 of over 1000 nM.

For `O=C1OCc2ccc(-n3cnc(Nc4nc(N5CCC[C@H]5CO)nn5cccc45)c3)cc21` [Compound 469g, (S)-6-(4-((2-(2-(hydroxymethyl)pyrrolidin-1-yl)pyrrolo[2,1-f][1,2,4]triazin-4-yl)amino)-1H-imidazol-1-yl)isobenzofuran-1(3H)-one], the IC50 was 100 to 1000 nM.

`OC[C@@H]1CCCN1c1nc(Nc2cn([C@H]3CC[C@H](O)CC3)cn2)c2cccn2n1` [Compound 470e, (trans)-4-(4-((2-((S)-2-(hydroxymethyl)pyrrolidin-1-yl)pyrrolo[2,1-f][1,2,4]triazin-4-yl)amino)-1H-imidazol-1-yl)cyclohexanol] showed an IC50 of 100 to 1000 nM.

`OC[C@@H]1CCCN1c1nc(Nc2cn([C@H]3C[C@H](O)C3)cn2)c2cccn2n1` [Compound 471e, (trans)-3-(4-((2-((S)-2-(hydroxymethyl)pyrrolidin-1-yl)pyrrolo[2,1-f][1,2,4]triazin-4-yl)amino)-1H-imidazol-1-yl)cyclobutanol] was tested, and the IC50 was under 100 nM.

Work on `COc1cc(-n2cnc(Nc3nc(N4CCC[C@H]4CO)c4ccn(C(C)C)c4n3)c2)cc(OC)c1OC` [Compound 472c, (S)-(1-(7-isopropyl-2-((1-(3,4,5-trimethoxyphenyl)-1H-imidazol-4-yl)amino)-7H-pyrrolo[2,3-d]pyrimidin-4-yl)pyrrolidin-2-yl)methanol] yielded an IC50 of under 100 nM.

`OC[C@@H]1CCCN1c1nc(Nc2cn([C@H]3CC[C@H](CO)CC3)cn2)c2cccn2n1` [Compound 474e, ((S)-1-(4-((1-((trans)-4-(hydroxymethyl)cyclohexyl)-1H-imidazol-4-yl)amino)pyrrolo[2,1-f][1,2,4]triazin-2-yl)pyrrolidin-2-yl)methanol] gave an IC50 of under 100 nM.

In the case of `Cc1cc(Cl)cc(-c2cnc(Nc3nc(N4CCC[C@H]4CO)nn4cccc34)s2)c1` [Compound 475c, (S)-(1-(4-((5-(3-chloro-5-methylphenyl)thiazol-2-yl)amino)pyrrolo[2,1-f][1,2,4]triazin-2-yl)pyrrolidin-2-yl)methanol], the IC50 is reported as over 1000 nM.

With `COc1cc(-c2cnc(Nc3nc(N4CCC[C@H]4CO)c4cccn4n3)s2)cc(OC)c1OC` [Compound 476a, (S)-(1-(2-((5-(3,4,5-trimethoxyphenyl)thiazol-2-yl)amino)pyrrolo[2,1-f][1,2,4]triazin-4-yl)pyrrolidin-2-yl)methanol] the IC50 was under 100 nM.

In the case of “(R)-(1-(5-((1-(3,4,5-trimethoxyphenyl)-1H-imidazol-4-yl)amino)thiazolo[5,4-d]pyrimidin-7-yl)pyrrolidin-2-yl)methanol [Compound 323b]”, the IC50 is reported as under 100 nM.
